Measured values from paper PMC7155171, “Probing the Open Global Health Chemical Diversity Library for Multistage-Active Starting Points for Next-Generation Antimalarials” (ACS Infectious Diseases, 2020).
Like-named read-outs stand apart in the source and are kept apart here.

What was measured:
[1] = test system: P. falciparum Dd2 (PfLuc) line expressing firefly luciferase, asexual blood stage; test: microbe, parasite or virus in culture; assay type: cell-based, Plasmodium falciparum; details: Plasmodium falciparum
P. falciparum Dd2 = test: SYBR green I asexual blood stage proliferation assay (96 h); assay type: cell-based, Plasmodium falciparum; details: Plasmodium falciparum, DD2, Sybr Green I, 11-pt dose response, 96hr; for IC50: read-out: CDD P. falciparum Sybr Green I ABS 11-pt Reconfirmation Dose Response (96hr): IC50; for Emax: read-out: CDD P. falciparum Sybr Green I ABS 11-pt Reconfirmation Dose Response (96hr): Maximum inhibition (%)
[2] = test system: P. berghei liver stage (PbLuc); test: P. berghei luciferase liver stage (PbLuc) assay in HepG2-A16-CD81 hepatocytes; assay type: cell-based, Plasmodium berghei; details: Plasmodium berghei; for Emax: 12pt dose response, maximum inhibition
[3] = target: recombinant firefly luciferase (Photinus pyralis, UniProt P08659); test: biochemical; details: for Emax: maximum inhibition, read-out: rLuc inhibition dose response: Maximum inhibition (%)
recombinant firefly luciferase, sequence (P08659 whole entry): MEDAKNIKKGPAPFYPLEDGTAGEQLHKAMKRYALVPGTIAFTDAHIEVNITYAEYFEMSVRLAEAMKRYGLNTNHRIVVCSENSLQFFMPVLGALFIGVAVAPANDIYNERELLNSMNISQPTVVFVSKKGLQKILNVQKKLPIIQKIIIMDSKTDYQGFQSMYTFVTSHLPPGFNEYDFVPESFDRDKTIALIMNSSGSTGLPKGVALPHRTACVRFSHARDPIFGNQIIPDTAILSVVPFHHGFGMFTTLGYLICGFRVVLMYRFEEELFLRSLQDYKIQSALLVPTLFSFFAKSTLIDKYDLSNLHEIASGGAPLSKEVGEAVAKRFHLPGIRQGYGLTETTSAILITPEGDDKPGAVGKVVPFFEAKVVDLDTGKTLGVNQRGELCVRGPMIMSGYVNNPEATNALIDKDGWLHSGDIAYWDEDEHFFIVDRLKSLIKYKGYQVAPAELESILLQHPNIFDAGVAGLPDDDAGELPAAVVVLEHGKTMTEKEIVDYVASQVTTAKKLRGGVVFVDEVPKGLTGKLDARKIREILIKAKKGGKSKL

[4] = test system: HepG2-A16-CD81 hepatocytes; test: HepG2 cytotoxicity screening (CellTiter-Glo); details: for IC50: HepG2-A16-CD81, read-out: HepG2 tox IC50; for HepG2 cytotoxicity 12pt dose response: Maximum inhibition (%): 12pt dose response
[5] = HepG2 cytotoxicity screening (CellTiter-Glo); details: human, uninfected HepG2-A16-CD81 (EGFP) hepatocytes
[6] = DD2, read-out: CDD P. falciparum Luciferase ABS 11-pt Reconfirmation Dose Response (48hr): IC50 (μM), 11-pt dose response, 48hr
[7] = DD2, 8-pt dose response, 96hr, read-out: CDD P. falciparum Luciferase ABS 8-pt Reconfirmation Dose Response (96hr): IC50
[8] = DD2, 8-pt dose response, 96hr, read-out: CDD P. falciparum Luciferase ABS 8-pt Reconfirmation Dose Response (96hr): Maximum inhibition (%)
[9] = DD2, 11-pt dose response, 48hr, read-out: CDD P. falciparum Luciferase ABS 11-pt Reconfirmation Dose Response (48hr): Maximum inhibition (%)
[10] = DD2, 11-pt dose response, 96hr, read-out: CDD P. falciparum Luciferase ABS 11-pt Reconfirmation Dose Response (96hr): IC50
[11] = DD2, 11-pt dose response, 96hr, read-out: CDD P. falciparum Luciferase ABS 11-pt Reconfirmation Dose Response (96hr): Maximum inhibition (%)
[12] = HepG2-A16-CD81, 48 h, 48 h liver stage, HepG2-A16-CD81, read-out: Pbluc (EEF) IC50
[13] = HepG2-A16-CD81, 12pt dose response, read-out: PbLuc 12pt dose response: IC50
[14] = dose response, read-out: rLuc inhibition dose response: IC50

SMILES	IC50 [1, 6]	IC50 [1, 7]	Emax [1, 8]	Emax [1, 9]	IC50 [1, 10]	Emax [1, 11]	IC50 (P. falciparum Dd2)	Emax (P. falciparum Dd2)	IC50 [2, 12]	IC50 ([3]; read-out: rLuc IC50)	IC50 [4]	IC50 [2, 13]	Emax ([2]; HepG2-A16-CD81, 48 h)	Emax ([3]; dose response)	IC50 [3, 14]	IC50 [5]	HepG2 Cytotoxicity primary screen (2uM): % Inhibition [4]	HepG2 cytotoxicity 12pt dose response: Maximum inhibition (%) [4]	inhibition at 2 µM [5]
CCOc1ccc(CN2CCCC(c3cc4ncccc4[nH]3)C2)cc1 (stereo not drawn) [DDD01057418]	1.07 µM	0.96 µM	95.5%	96.8%	0.872 µM	100%	0.934 µM	95.7%	5.76 µM	> 25 µM	> 25 µM								
Clc1ccc(-c2ccc(C3CNCCO3)nc2)cc1 (stereo not drawn) [DDD01060778]	1.38 µM	0.46 µM	93%	97.5%	1.36 µM	99.3%	> 12.5 µM	56.1%	< 0.000141 µM	0.06 µM	> 25 µM								
COC1CCN(c2ccc(NC(=O)C3CC3)cc2C(F)(F)F)CC1 [UCSD-0582177]												14.7 µM	87.5%	16.4%	> 25 µM	> 25 µM	12.40%	23%	
CCc1cccc(N2CCC(NC(=O)c3ccco3)CC2)c1 [UCSD-0587427]												11.1 µM	87.3%	11.1%	> 25 µM	> 25 µM	4.14%	3.68%	
Cn1cnc2c1CCN(Cc1csc(-c3ccccc3F)n1)C2 [UCSD-0598805]												< 0.000141 µM	84.3%	81.2%	15 µM	> 25 µM		6.01%	0.19%
COc1cccc(CN2CCN(c3ccc4nncn4n3)C(C)C2)c1 (stereo not drawn) [UCSD-0601459]												12.6 µM	92.1%	0.876%	> 25 µM	> 25 µM	-7.20%	49.9%	
COC(=O)c1sc(NCc2ccc(N3CCC(O)CC3)c(F)c2)nc1Cl [UCSD-0616240]												12.5 µM	87.4%	26.9%	> 25 µM	17.7 µM	5.85%	58.9%	
CCc1nc(CN2CCCN(c3ncnc4ccccc34)CC2)no1 [UCSD-0620461]												0.691 µM	96.1%	3.79%	> 50 µM	> 1.85 µM		60.2%	6.37%
COc1cccc(CNc2cc(C)nc(-c3ccncc3)n2)c1OC [UCSD-0704521]												4.43 µM	104%	11.7%	> 25 µM	9.86 µM	-4.44%	80.5%	
CC(C)Cc1ccc(S(=O)(=O)Nc2ccc(=O)n(C)c2)cc1 [UCSD-0710590]												0.0472 µM	91.6%	7.28%	> 25 µM	> 0.31 µM		60.9%	3.02%
Cn1cc(NS(=O)(=O)c2ccc(OC(F)(F)F)cc2)ccc1=O [UCSD-0710715]												13.1 µM	69.6%	16.1%	> 25 µM	> 25 µM	-4.65%		
COc1c(CNCc2ccc(C(=O)N(C)C(C)C)cc2)c(C)nn1C [UCSD-0723791]												2.49 µM	86.3%	-4.69%	> 25 µM	16.6 µM		53.2%	0.82%
O=C(Nc1ccc(Cl)cn1)c1nn(C2CCS(=O)(=O)C2)c2c1CCCC2 (stereo not drawn) [UCSD-0749819]												> 25 µM	60%	2.39%	> 25 µM	> 25 µM		-0.0195%	-5.58%
Cc1cnc(NC(=O)c2csc(NC3CCCC3)n2)s1 [UCSD-0752486]												8.33 µM	93.6%	65.8%	24.8 µM	> 25 µM		48.7%	
Cc1[nH]/c(=N\C(=O)c2csc(NC3CCCC3)n2)sc1C [UCSD-0752597]												0.832 µM	121%	92.3%	44.4 µM	11 µM		87.9%	8%
O=C(NC1CCCC1)O[C@H]1COCCN(c2nc3ccccc3s2)C1 [UCSD-0785020]												6.66 µM	88.1%	16.5%	> 25 µM	> 25 µM		-1.51%	0.48%
CCS(=O)(=O)N1CCc2ccc(NC(=O)Nc3cccc(C)c3)cc21 [UCSD-0785768]												3.66 µM	77.6%	36.5%	> 50 µM	> 16.6 µM		52.3%	27.5%
CCS(=O)(=O)N1CCc2ccc(NC(=O)Nc3cccc(F)c3)cc21 [UCSD-0785772]												9.31 µM	90.3%	22.1%	> 25 µM	17.8 µM		50.2%	17.6%
